# Experimental data taken from patent publication US11285130B2, “Treatment of mitochondrial diseases” (Khondrion IP B.V., priority 2017, dated 2022).
# Read-outs that look alike come from different tables or passages of the source.
# Experiments:
# [1] = tested on: primary human fibroblasts from patients with Leigh syndrome; assay: Oxidative stress-induced cell death (BSO) assay, Leigh patient fibroblasts; type: cell-based
# Excerpt: (§1) To determine the effective concentration of the compounds (the concentrations that protect patient cells against oxidative stress-induced cell death) the applicant established an assay using stressed primary human fibroblasts from patients with Leigh syndrome, MELAS or LHON diseases. Utilising the inherent oxidative stress of fibroblasts from patients with mitochondrial disease, their oxidative burden was further increased by depleting cellular glutathione with an inhibitor of glutathione synthesis, L-buthionine-(S,R)-sulfoximine (BSO). […] Cells were seeded at a density of 3000 cells/well in a 96-well format and incubated with increasing concentrations of compounds in combination with BSO (100 μM, Sigma-aldrich). One day after treatment, the cells were washed twice and stained with a solution of 5 μM calcein-AM (Life technologies C3100MP) during 25 min in 199 medium without phenol red (Life technologies, 11043-023) at room temperature. After 2 washes with PBS (Phosphate buffered saline) the plate was read on a fluorescence plate reader (Fluostar Omega, BMG labtech) and the percentage of cell viability determined as a function of fluorescence intensity.
# [2] = MAD study pharmacokinetic analysis; type: in vivo, human; details: for AUCtau (Geomean) / Cmax (Geomean) / tmax* (median) / Racc (accumulation ratio, Geomean): MAD
# Method: (§2) Dose escalation to the next dose level was done after evaluation of the safety and the first 24-hour pharmacokinetic results of the previous dose. […] Anticipated exposures at this starting dose were just below the Minimum Anticipated Biological Effect Level (MABEL). Placebo (an in taste and appearance matching oral liquid) was also administered orally on one occasion in the single-ascending dose part and b.i.d. for 7 Days in the MAD part. […] All samples were stored at <-70° C. until analysis. […] For mean value calculations, all values below the limit of quantification (LOQ) were set to zero. […] The non-compartmental pharmacokinetic analysis was performed using Phoenix, Version 6.3 (Pharsight Corporation, Mountain View, Calif., USA). […] The PK parameters were calculated on the basis of the actual blood sampling time points relative to dosing. Selected pharmacokinetic parameters (Cmax, tmax, t1/2, AUClast and AUC0-int) following single-dose administration and selected pharmacokinetic parameters Cmax, tmax, [NT], the accumulation factor (Racc) and time to reach steady state) following multiple dose administration were determined. In urine, the percentage of dose excreted in urine was determined for the single- and multiple-dose administration.
# [3] = tested on: primary human fibroblasts from patients with MELAS; assay: Oxidative stress-induced cell death (BSO) assay, MELAS patient fibroblasts; type: cell-based; details: fibroblasts derived from MELAS patients, 100 μM BSO; read-out: EC50, protection from oxidative stress-induced cell death
# Excerpt: as §1
# [4] = SAD study pharmacokinetic analysis; type: in vivo, human
# Method: as §2
# [5] = tested on: primary human fibroblasts from patients with LHON; assay: Oxidative stress-induced cell death (BSO) assay, LHON patient fibroblasts; type: cell-based; details: fibroblasts derived from LHON patients, 100 μM BSO; read-out: EC50, protection from oxidative stress-induced cell death
# Excerpt: as §1
compound,measurement,setting,value
"COC1=C(OC)C(=O)C(CCCCCCCCCCO)=C(C)C1=O [Idebenone, reference compound]",EC50,"[1]; Homo sapiens, in vitro fibroblast assays (Redox assay), fibroblast type not given, values match Leigh, read-out: EC50",1470 nM
CC1=C(C)C(=O)C(CC[C@](C)(O)C(=O)N[C@@H]2CCCNC2)=C(C)C1=O [KH176m],AUCtau (Geomean),"[2]; KH176 100 mg b.i.d, Day 1",702 ng·h/mL
same,Cmax (Geomean),"[2]; KH176 100 mg b.i.d, Day 1",99.4 ng/mL
same,tmax* (median),"[2]; KH176 100 mg b.i.d, Day 1",1.50 h
same,AUCtau (Geomean),"[2]; KH176 100 mg b.i.d, Day 7",1310 ng·h/mL
same,Cmax (Geomean),"[2]; KH176 100 mg b.i.d, Day 7",152 ng/mL
same,"Racc (accumulation ratio, Geomean)","[2]; KH176 100 mg b.i.d, Day 7",1.86
same,tmax* (median),"[2]; KH176 100 mg b.i.d, Day 7",1.00 h
same,AUCtau (Geomean),"[2]; KH176 200 mg b.i.d, Day 1",1680 ng·h/mL
same,Cmax (Geomean),"[2]; KH176 200 mg b.i.d, Day 1",251 ng/mL
same,tmax* (median),"[2]; KH176 200 mg b.i.d, Day 1",1.75 h
same,AUCtau (Geomean),"[2]; KH176 200 mg b.i.d, Day 7",2220 ng·h/mL
same,Cmax (Geomean),"[2]; KH176 200 mg b.i.d, Day 7",250 ng/mL
same,"Racc (accumulation ratio, Geomean)","[2]; KH176 200 mg b.i.d, Day 7",1.32
same,tmax* (median),"[2]; KH176 200 mg b.i.d, Day 7",1.50 h
same,AUCtau (Geomean),"[2]; KH176 400 mg b.i.d, Day 1",3600 ng·h/mL
same,Cmax (Geomean),"[2]; KH176 400 mg b.i.d, Day 1",550 ng/mL
same,tmax* (median),"[2]; KH176 400 mg b.i.d, Day 1",1.25 h
same,AUCtau (Geomean),"[2]; KH176 400 mg b.i.d, Day 7",4270 ng·h/mL
same,Cmax (Geomean),"[2]; KH176 400 mg b.i.d, Day 7",450 ng/mL
same,"Racc (accumulation ratio, Geomean)","[2]; KH176 400 mg b.i.d, Day 7",1.19
same,tmax* (median),"[2]; KH176 400 mg b.i.d, Day 7",1.50 h
same,"AUCtau (one dosing interval, 12 hours), range","[2]; steady state, 100 mg BID",851 to 1570 ng·h/mL
same,"average concentrations, range","[2]; steady state, 100 mg BID",70.9 to 130.8 ng/mL
same,"maximum concentration, range","[2]; steady state, 100 mg BID, healthy subjects",89.4 to 204 ng/mL
same,EC50,[3],14 nM
same,"AUC0-inf ratio (fed/fasted), 90% CI","[4]; 100 mg, fed versus fasted",0.90 (90% Cl 0.57-1.41)
same,AUC0-inf (Geomean),"[4]; SAD, KH176 10 mg, fasted",234 ng·h/mL
same,AUClast (Geomean),"[4]; SAD, KH176 10 mg, fasted",151 ng·h/mL
same,Cmax (Geomean),"[4]; SAD, KH176 10 mg, fasted",14.2 ng/mL
same,t1/2 (Geomean),"[4]; SAD, KH176 10 mg, fasted",16.6 h
same,tmax* (median),"[4]; SAD, KH176 10 mg, fasted",1.25 h
same,AUC0-inf (Geomean),"[4]; SAD, KH176 30 mg, fasted",881 ng·h/mL
same,AUClast (Geomean),"[4]; SAD, KH176 30 mg, fasted",547 ng·h/mL
same,Cmax (Geomean),"[4]; SAD, KH176 30 mg, fasted",49.4 ng/mL
same,t1/2 (Geomean),"[4]; SAD, KH176 30 mg, fasted",17.8 h
same,tmax* (median),"[4]; SAD, KH176 30 mg, fasted",1.50 h
same,AUC0-inf (Geomean),"[4]; SAD, KH176 100 mg, fasted",2690 ng·h/mL
same,AUClast (Geomean),"[4]; SAD, KH176 100 mg, fasted",1810 ng·h/mL
same,Cmax (Geomean),"[4]; SAD, KH176 100 mg, fasted",168 ng/mL
same,t1/2 (Geomean),"[4]; SAD, KH176 100 mg, fasted",15.4 h
same,tmax* (median),"[4]; SAD, KH176 100 mg, fasted",1.25 h
same,AUC0-inf (Geomean),"[4]; SAD, KH176 100 mg, fed",2410 ng·h/mL
same,AUClast (Geomean),"[4]; SAD, KH176 100 mg, fed",1590 ng·h/mL
same,Cmax (Geomean),"[4]; SAD, KH176 100 mg, fed",117 ng/mL
same,t1/2 (Geomean),"[4]; SAD, KH176 100 mg, fed",14.9 h
same,tmax* (median),"[4]; SAD, KH176 100 mg, fed",2.50 h
same,AUC0-inf (Geomean),"[4]; SAD, KH176 300 mg, fasted",6890 ng·h/mL
same,AUClast (Geomean),"[4]; SAD, KH176 300 mg, fasted",4830 ng·h/mL
same,Cmax (Geomean),"[4]; SAD, KH176 300 mg, fasted",497 ng/mL
same,t1/2 (Geomean),"[4]; SAD, KH176 300 mg, fasted",14.3 h
same,tmax* (median),"[4]; SAD, KH176 300 mg, fasted",1.24 h
same,AUC0-inf (Geomean),"[4]; SAD, KH176 800 mg, fasted",18700 ng·h/mL
same,AUClast (Geomean),"[4]; SAD, KH176 800 mg, fasted",11700 ng·h/mL
same,Cmax (Geomean),"[4]; SAD, KH176 800 mg, fasted",1100 ng/mL
same,t1/2 (Geomean),"[4]; SAD, KH176 800 mg, fasted",17.2 h
same,tmax* (median),"[4]; SAD, KH176 800 mg, fasted",1.50 h
same,AUC0-inf (Geomean),"[4]; SAD, KH176 2000 mg, fasted",41300 ng·h/mL
same,AUClast (Geomean),"[4]; SAD, KH176 2000 mg, fasted",23900 ng·h/mL
same,Cmax (Geomean),"[4]; SAD, KH176 2000 mg, fasted",1780 ng/mL
same,t1/2 (Geomean),"[4]; SAD, KH176 2000 mg, fasted",18.9 h
same,tmax* (median),"[4]; SAD, KH176 2000 mg, fasted",1.75 h
same,t1/2,"[4]; SAD, approximate, across dose groups",approximately 16 h
same,median tmax,[4]; fasted condition (100 mg),approximately 1 h
same,median tmax,"[4]; fed condition (100 mg, high calorie/high fat breakfast)",2.5 h
same,EC50,"[1]; fibroblasts derived from Leigh patients, 100 μM BSO, one day, calcein-AM viability, read-out: EC50 (half maximum effective concentration), protection from oxidative stress-induced cell death",16 nM
same,EC50 expressed in ng/mL,"[1]; in vitro fibroblast assays (Redox assay), fibroblast type not given, values match Leigh",around 5.8 ng/mL
same,EC50,"[1]; in vitro fibroblast assays (Redox assay), fibroblast type not given, values match Leigh, read-out: EC50",16 nM
same,EC50,[5],4 nM
